From patent publication US8877819B2, “Methods for treating heat stress and related compositions” (Georgetown University, priority 2008, dated 2014)
Marks after values point to notes of the source that are not given here.

Legend:
[1] = test system: angiotensin-2; test: Serum angiotensin-2 levels (radioimmunoassay); type: in vivo, Zucker Fatty Rats; conditions: Experiment 2, captopril 30 mg/kg in feed
Method: Serum angiotensin-2 was trapped by octylminicolumns (Amprep-C8, 500 mg, Amersham, Buckingshire, UK). Each minicolumn was prewashed with 5 mL of 100% methanol and then with 10 mL of 0.1% trifluoroacetic acid (TFA) in distilled water. After the serum was passed through the minicolumn, it was washed with 0.1% TFA again. […] Samples were collected and dried in a vacuum centrifuge and dissolved in 0.1M Tris-acetate buffer (pH 7.4) containing 2.6 mM disodium salt of ethylenediaminetetra-acetic acid (EDTA), 1 mM phenylmethylsulphonyl fluoride, and 0.1% bovine serum albumin.
Angiotensin-2 was measured by radioimmunoassay using an angiotensin-2 antibody (Peninsula Laboratories Inc., Belmont, Calif.). The sensitivity of the assay is 1.0 pg/tube. The 500-fold diluted angiotensin-2 antibody (100 μL) was added to the sample (400 μL) and standard tubes that were incubated 24 hours at 4° C.

[2] = test system: Zucker Fatty Rats (ZFR); test: Blood pressure and cardiac rate by tail plethysmography; type: in vivo; conditions: captopril 30 mg/kg in feed
Method: For two experiments, a total of 96 Zucker Fatty Rats (ZFR) (Charles River, Wilmington, Mass.) were used: 48 in each experiment were divided into four groups of 12 rats. Initial body weights ranged between 434 and 624 g in the first experiment and between 388 and 520 g in the second. All rats consumed a regular rat diet in crushed form (Purina Rat Chow, Ralston Purina, St. Louis, Mo.). Sucrose was added to the pulverized regular rat chow (30%, w/w). The four groups comprised a control eating the described diet and three test groups eating the same diet but with the addition of captopril or astaxanthin (two different doses). […] The amount of astaxanthin added was based on 2% (w/w) content of astaxanthin to powder. The first study continued for 57 days while the second continued for 75 days. SBP was measured by tail plethysmography using two different instruments. As in many previous studies, an instrument from Narco Biosciences (Houston, Tex.) was used. This allowed for rapid measurement SBP with a beeper sound system. The second reading was performed on an instrument obtained from Kent Scientific Corporation (Torrington, Conn.). The latter is a computerized, non-invasive tail cuff acquisition system that utilizes a specially-designed differential pressure transducer to non-invasively measure the blood volume in the tail. This instrument not only records SBP, but also provides measurements of mean blood pressure (MBP), diastolic blood pressure (DBP), and cardiac rate. The two instruments were used interchangeably. Previous experience has shown that the SBP readings were virtually the same by either instrument. Rats were allowed free access to their diet and water until SBP readings were obtained between 13.00 h and 17.00 h after a slight warming. Multiple readings on individual rats were taken. To be accepted, SBP measurements on a given rat had to be stable (consistently within 5 mm Hg).

[3] = test system: TNF-α; test: Cytokine assay (ELISA), TNF-α; type: in vivo, Zucker Fatty Rats; conditions: Experiment 2; captopril 30 mg/kg in feed
Method: (§1) Various cytokines were measured by ELISA methodology using kits from the following sources: rat MCP-1—Assay Designs Inc., Ann Arbor, Mich.; rat adiponectin—ALPCO Diagnostics, Salem, N.H.; TNF-a, ALPCO Diagnostics, Salem, N.H.; RAT IL-1B—Assay Designs Inc, Ann Arbor, Mich.; RAT IL-6—ALPCO Diagnostics, Salem, N.H.

[4] = test system: RAS; test: Losartan challenge (decrease in SBP to estimate activity of the RAS); type: in vivo, Zucker Fatty Rats; conditions: losartan 40 mg/kg orally, captopril 30 mg/kg in feed
Source text: Three and six hours after lavage, SBP was remeasured. The decreased SBP after losartan was used to estimate activity of the RAS.

[5] = test system: Zucker Fatty Rats (ZFR); test: Intraperitoneal Glucose Tolerance Test (ipGTT); type: in vivo; conditions: Experiment 2, captopril 30 mg/kg in feed
Method: During the ipGTT, glucose (2.5 g/kg BW) was injected intraperitoneally (i.p.) to challenge the tolerance to glucose. Drops of blood were obtained from the tail at 0, 30, 60, 120, 180 and 240 minutes post injection. Glucose was estimated using commercial glucose strips (Lifescan, One Touch Ultra, […], Calif.).

[6] = test system: Thiobarbituric acid-reactive substances (TBARS); test: Lipid peroxidation (TBARS) in hepatic and kidney homogenates; type: in vivo, Zucker Fatty Rats; conditions: Experiment 2; captopril 30 mg/kg in feed
Method: Thiobarbituric acid-reactive substances (TBARS) as an index of lipid peroxidation were determined on hepatic and kidney homogenates from control and treated and malondialdehyde (MDA) was used as the standard.

[7] = test system: adiponectin; test: Cytokine assay (ELISA), adiponectin; type: in vivo, Zucker Fatty Rats; conditions: Experiment 2; captopril 30 mg/kg in feed
Method: as §1

[8] = test system: IL-6; test: Cytokine assay (ELISA), IL-6; type: in vivo, Zucker Fatty Rats; conditions: Experiment 2; captopril 30 mg/kg in feed
Method: as §1

[9] = Organ weights; type: in vivo, Zucker Fatty Rats; conditions: Experiment 2; after sacrifice; captopril 30 mg/kg in feed; in g (unit assumed)
Method: Organ weights were measured immediately after sacrifice of the rats.

[10] = test system: DNA fragmentation; test: DNA fragmentation in liver and kidney; type: in vivo, Zucker Fatty Rats; conditions: Experiment 2, captopril 30 mg/kg in feed
Method: Frozen liver and kidney samples were homogenized in lysis buffer (5 mM Tris-HCl, 20 mM EDTA, 0.5% Triton X-100, pH 8.0). Homogenates were centrifuged at 27,000 g for 20 min to separate intact chromatin in the pellet from fragmented DNA in the supernatant fraction. Pellets were re-suspended in 0.5 M perchloric acid and 5.5 M perchloric acid was added to supernatant samples to reach a concentration of 0.5 M. Samples were heated at 90° C. for 15 min and centrifuged at 1,500 g for 10 min to remove protein. Resulting supernatants were reacted with diphenylamine for 16-20 h at room temperature. Absorbance was measured at 600 nm. DNA fragmentation in control samples was expressed as percentage of total DNA appearing in the supernatant fraction. Treatment effects are reported as percent of control fragmentation.

[11] = percentage of total DNA in the supernatant fraction

## C[C@H](CS)C(=O)N1CCC[C@H]1C(=O)O [Captopril, reference compound]
[1]
  Angio 2: 162.0 ± 6.4 pg/mL
[2]; Experiment 1
  SBP over the last month vs control: significantly lower SBP
[2]; Experiment 1, survivors, 12 days after heat stress
  SBP after heat stress: 133.8 ± 2.4 mm Hg
[2]; Experiment 2, 60 days
  DBP: 103.0 ± 1.8 mm Hg
  SBP: 129.0 ± 1.5 mm Hg
[2]; Experiment 2, 60 days, in beats/min (unit assumed)
  Cardiac rate: 393.0 ± 9.3
[2]; Experiment 2
  SBP at the end of study (75 days) vs Lo Asta group: significantly lower than in the Lo Asta group
  average SBP vs control from 40 days to end of study: significantly lower than control
[3]
  TNF-α: 242.0 ± 13.6
[4]; Experiment 1, survivors after heat stress
  Losartan: decrease in SBP after losartan challenge: 29.0 ± 2.4
[4]; Experiment 2
  Losartan: decrease in SBP after losartan challenge: 30.6 ± 1.8 mm Hg
[5]; glucose 2.5 g/kg i.p.
  insulin concentration one hour after the glucose challenge: 2.37 ng/mL
[5]; ipGTT baseline
  Baseline insulin concentration: 0.82 ng/mL
  average baseline glucose level: 302 mg/dL
[6]
  Lipid peroxidation, Kidney: 3.4 ± 0.44 nmoles MDA/mg protein
  Lipid peroxidation, Liver: 4.0 ± 0.29 nmoles MDA/mg protein
[7]
  Adiponectin: 4.27 ± 0.39
[8]
  IL-6: 391.0 ± 12*^
[9]
  Organ weight, Epidydimal fat pad: 19.1 ± 1.2
  Organ weight, Kidney (left): 2.3 ± 0.09
  Organ weight, Kidney (right): 2.3 ± 0.09
  Organ weight, Liver: 43.1 ± 2.0
[10]
  DNA Fragmentation (% Control), Kidney: 105 % Control
  DNA Fragmentation (% Control), Liver: 100 % Control
[10]; [11]
  DNA Fragmentation, Kidney: 4.5 ± 0.51
  DNA Fragmentation, Liver: 4.0 ± 0.17
